Data as given in patent US9556165B2 (priority 2012, dated 2017).
Converted amounts (≈) assume the structure as drawn. Where two headings read alike, the source gives them in different places.

Assays:
Type in all cases: cell-based
E. coli ATCC25922 = assay: MIC determination, broth microdilution (CLSI); conditions: for MIC: Escherichia coli, ATCC25922, strain 1
E. cloacae 34654 = assay: MIC determination, broth microdilution (CLSI); conditions: Enterobacter cloacae, 34654, strain 3
C. freundii K21/3034 = assay: MIC determination, broth microdilution (CLSI); conditions: Citrobacter freundii, K21/3034, strain 4
M. morganii 126/3048 = assay: MIC determination, broth microdilution (CLSI); conditions: Morganella morganii, 126/3048, strain 5
P. aeruginosa PAO1 = assay: MIC determination, broth microdilution (CLSI); conditions: Pseudomonas aeruginosa, PAO1, strain 6
[1] = tested on: P. aeruginosa 2297 (AmpC wt); assay: MIC determination, broth microdilution (CLSI); conditions: Pseudomonas aeruginosa, strain 7
[2] = tested on: P. aeruginosa 2297-con (AmpC derepressed); assay: MIC determination, broth microdilution (CLSI); conditions: Pseudomonas aeruginosa, read-out: strain 8 MIC, strain 8
A. baumannii ATCC15308 = assay: MIC determination, broth microdilution (CLSI); conditions: Acinetobacter baumannii, ATCC15308, strain 9
S. aureus 133 = assay: MIC determination, broth microdilution (CLSI)
E. coli J62 = assay: MIC determination, broth microdilution (CLSI); conditions: Escherichia coli, J62, strain 17; broth microdilution; read-out: MIC strain 17 (E. coli J62)
Bacteria = assay: MIC determination in combination with β-lactamase inhibitors (constant 4 μg/mL)
K. pneumoniae 60 = assay: MIC determination, broth microdilution (CLSI); conditions: Klebsiella pneumoniae, 60, strain 2
H. influenzae ATCC 49247 = assay: MIC determination, broth microdilution (CLSI); conditions: Haemophilus influenzae, ATCC49247, strain 12; broth microdilution; read-out: MIC strain 12 (H. influenzae ATCC 49247)
S. pneumoniae 113 = assay: MIC determination, broth microdilution (CLSI); conditions: Streptococcus pneumoniae, 113, strain 13; broth microdilution; read-out: MIC strain 13 (S. pneumoniae 113)
B. fragilis 6688 = assay: MIC determination, broth microdilution (CLSI); conditions: Bacteroides fragilis, 6688, strain 15; broth microdilution; read-out: MIC strain 15 (B. fragilis 6688)
E. coli J62-TEM-3 = assay: MIC determination, broth microdilution (CLSI); conditions: Escherichia coli, J62TEM3, read-out: MIC strain 18 (E. coli J62-TEM-3), strain 18; broth microdilution
[3] = Staphylococcus aureus, 133, strain 14, broth microdilution, read-out: MIC strain 14 (S. aureus 133)
[4] = Staphylococcus aureus, 133, strain 11, read-out: strain 11 MIC

SMILES	MIC (E. coli ATCC25922)	MIC (E. cloacae 34654)	MIC (C. freundii K21/3034)	MIC (M. morganii 126/3048)	MIC (P. aeruginosa PAO1)	MIC [1]	MIC [2]	MIC (A. baumannii ATCC15308)	MIC (S. aureus 133; [3])	MIC (E. coli J62)	MIC strain 19 (E. coli J62-TEM-3 + 4 μg/mL clavulanic acid) (Bacteria)	MIC strain 20 (E. coli J62-TEM-3 + 4 μg/mL sulbactam) (Bacteria)	MIC strain 21 (E. coli J62-TEM-3 + 4 μg/mL tazobactam) (Bacteria)	MIC (K. pneumoniae 60)	MIC (S. aureus 133; [4])	MIC (H. influenzae ATCC 49247)	MIC (S. pneumoniae 113)	MIC (B. fragilis 6688)	MIC (E. coli J62-TEM-3)	strain 1 MIC (E. coli ATCC25922; strain 1)
C[C@H]1[C@H](NC(=O)/C(=N\OCCOc2cccc(C(=N)N)c2)c2csc(N)n2)C(=O)N1S(=O)(=O)O [Example 53, (2S,3S)-3-{[(2Z)-2-(2-Amino-1,3-thiazol-4-yl)-2-{[2-(3-carbamimidoylphenoxy)ethoxy]imino}acetyl]amino}-2-methyl-4-oxoazetidine-1-sulfonic acid]	0.5 µg/mL (≈ 0.977 µM)	0.5 µg/mL (≈ 0.977 µM)	0.5 µg/mL (≈ 0.977 µM)	2 µg/mL (≈ 3.91 µM)	16 µg/mL (≈ 31.3 µM)	16 µg/mL (≈ 31.3 µM)	32 µg/mL (≈ 62.6 µM)	4 µg/mL (≈ 7.82 µM)	32 µg/mL (≈ 62.6 µM)	1 µg/mL (≈ 1.95 µM)	1 mg/L	1 mg/L	1 mg/L							
C[C@H]1[C@H](NC(=O)/C(=N\OCCOc2ccc(C(=N)NCCOC=O)cc2)c2csc(N)n2)C(=O)N1S(=O)(=O)O [Example 70, (2S,3S)-3-{[(2Z)-2-(2-Amino-1,3-thiazol-4-yl)-2-{[2-(4-{N-[2-(formyloxy)ethyl]carbamimidoyl}phenoxy)ethoxy]imino}acetyl]amino}-2-methyl-4-oxoazetidine-1-sulfonic acid]	0.125 µg/mL (≈ 0.214 µM)	0.25 µg/mL (≈ 0.428 µM)	0.125 µg/mL (≈ 0.214 µM)	0.125 µg/mL (≈ 0.214 µM)	4 µg/mL (≈ 6.85 µM)	4 µg/mL (≈ 6.85 µM)		2 µg/mL (≈ 3.43 µM)	8 µg/mL (≈ 13.7 µM)	0.25 µg/mL (≈ 0.428 µM)	0.25 mg/L	0.25 mg/L	0.25 mg/L	0.25 µg/mL (≈ 0.428 µM)	0.125 µg/mL (≈ 0.214 µM)	0.125 µg/mL (≈ 0.214 µM)	0.5 µg/mL (≈ 0.857 µM)	16 µg/mL (≈ 27.4 µM)	16 µg/mL (≈ 27.4 µM)	
C[C@H]1[C@H](NC(=O)/C(=N\OCCOc2ccc(C(=N)NCCN)cc2)c2csc(N)n2)C(=O)N1OCS(=O)(=O)O [Example 77, {[(2S,3S)-3-{[(2Z)-2-[(2-{4-[N-(2-Aminoethyl)carbamimidoyl]phenoxy}ethoxy)imino]-2-(2-amino-1,3-thiazol-4-yl)acetyl]amino}-2-methyl-4-oxoazetidin-1-yl]oxy}methanesulfonic acid]	0.5 µg/mL (≈ 0.855 µM)	2 µg/mL (≈ 3.42 µM)	0.5 µg/mL (≈ 0.855 µM)	2 µg/mL (≈ 3.42 µM)	8 µg/mL (≈ 13.7 µM)	16 µg/mL (≈ 27.4 µM)		8 µg/mL (≈ 13.7 µM)		0.5 µg/mL (≈ 0.855 µM)	1 mg/L	1 mg/L	1 mg/L	2 µg/mL (≈ 3.42 µM)					16 µg/mL (≈ 27.4 µM)	
C[C@H]1[C@H](NC(=O)/C(=N\OCc2ccc(C(=N)N)cc2)c2csc(N)n2)C(=O)N1S(=O)(=O)O [Example 55, (2S,3S)-3-{[(2Z)-2-(2-Amino-1,3-thiazol-4-yl)-2-{[(4-carbamimidoylbenzyl)oxy]imino}-acetyl]amino}-2-methyl-4-oxoazetidine-1-sulfonic acid]	0.5 µg/mL (≈ 1.04 µM)	0.5 µg/mL (≈ 1.04 µM)	0.25 µg/mL (≈ 0.519 µM)	0.25 µg/mL (≈ 0.519 µM)	16 µg/mL (≈ 33.2 µM)		32 µg/mL (≈ 66.5 µM)	4 µg/mL (≈ 8.31 µM)	8 µg/mL (≈ 16.6 µM)	1 µg/mL (≈ 2.08 µM)	1 mg/L	0.5 mg/L	0.5 mg/L	1 µg/mL (≈ 2.08 µM)	0.25 µg/mL (≈ 0.519 µM)	1 µg/mL (≈ 2.08 µM)	0.125 µg/mL (≈ 0.26 µM)	8 µg/mL (≈ 16.6 µM)		
CC1(C)[C@H](NC(=O)/C(=N\O[C@H](COc2ccc(C(=N)NCCNc3ncccn3)cc2)C(=O)O)c2csc(N)n2)C(=O)N1OS(=O)(=O)O [Example 111, (2R)-2-({[(1Z)-1-(2-Amino-1,3-thiazol-4-yl)-2-{[(3S)-2,2-dimethyl-4-oxo-1-(sulfooxy)-azetidin-3-yl]amino}-2-oxoethylidene]amino}oxy)-3-(4-{N-[2-(pyrimidin-2-ylamino)ethyl]carbamimidoyl}phenoxy)propanoic acid]	8 µg/mL (≈ 11.3 µM)	16 µg/mL (≈ 22.6 µM)	4 µg/mL (≈ 5.66 µM)	8 µg/mL (≈ 11.3 µM)	32 µg/mL (≈ 45.3 µM)	32 µg/mL (≈ 45.3 µM)	32 µg/mL (≈ 45.3 µM)	32 µg/mL (≈ 45.3 µM)		16 µg/mL (≈ 22.6 µM)	8 mg/L	8 mg/L	8 mg/L	8 µg/mL (≈ 11.3 µM)		0.25 µg/mL (≈ 0.354 µM)	2 µg/mL (≈ 2.83 µM)		32 µg/mL (≈ 45.3 µM)	
CC(C)NC(=N)c1ccc(OCCO/N=C(\C(=O)N[C@@H]2C(=O)N(S(=O)(=O)O)[C@H]2C)c2csc(N)n2)cc1 [Example 54, (2S,3S)-3-({(2Z)-2-(2-Amino-1,3-thiazol-4-yl)-2-[(2-{4-[N-(propan-2-yl)carbamimidoyl]phenoxy}ethoxy)imino]acetyl}amino)-2-methyl-4-oxoazetidine-1-sulfonic acid]	0.5 µg/mL (≈ 0.903 µM)	0.5 µg/mL (≈ 0.903 µM)	0.25 µg/mL (≈ 0.452 µM)	1 µg/mL (≈ 1.81 µM)	4 µg/mL (≈ 7.23 µM)	8 µg/mL (≈ 14.5 µM)		4 µg/mL (≈ 7.23 µM)	2 µg/mL (≈ 3.61 µM)	0.5 µg/mL (≈ 0.903 µM)	0.5 mg/L	0.25 mg/L	0.5 mg/L	0.5 µg/mL (≈ 0.903 µM)					16 µg/mL (≈ 28.9 µM)	
CC1(C)[C@H](NC(=O)/C(=N\O[C@H](COc2ccc(C(=N)NCc3ncc[nH]3)cc2)C(=O)O)c2csc(N)n2)C(=O)N1OS(=O)(=O)O [Example 105, (2R)-2-({[(1Z)-1-(2-Amino-1,3-thiazol-4-yl)-2-{[(3S)-2,2-dimethyl-4-oxo-1-(sulfooxy)-azetidin-3-yl]amino}-2-oxoethylidene]amino}oxy)-3-{4-[N-(1H-imidazol-2-ylmeth-yl)carbamimidoyl]phenoxy}propanoic acid]																				16 mg/L
C[C@H]1[C@H](NC(=O)/C(=N\OCCOc2cc(C(=N)N)n(C)n2)c2csc(N)n2)C(=O)N1S(=O)(=O)O [Example 72, (2S,3S)-3-{[(2Z)-2-(2-Amino-1,3-thiazol-4-yl)-2-({2-[(5-carbamimidoyl-1-methyl-1H-pyrazol-3-yl)oxy]ethoxy}imino)acetyl]amino}-2-methyl-4-oxoazetidine-1-sulfonic acid]	0.5 µg/mL (≈ 0.97 µM)	1 µg/mL (≈ 1.94 µM)	0.5 µg/mL (≈ 0.97 µM)	0.25 µg/mL (≈ 0.485 µM)	8 µg/mL (≈ 15.5 µM)	8 µg/mL (≈ 15.5 µM)		4 µg/mL (≈ 7.76 µM)	16 µg/mL (≈ 31 µM)	1 µg/mL (≈ 1.94 µM)	1 mg/L	1 mg/L	1 mg/L	0.25 µg/mL (≈ 0.485 µM)	0.25 µg/mL (≈ 0.485 µM)	0.5 µg/mL (≈ 0.97 µM)	2 µg/mL (≈ 3.88 µM)	16 µg/mL (≈ 31 µM)	32 µg/mL (≈ 62.1 µM)	
C[C@H]1[C@H](NC(=O)/C(=N\OCCOCc2cc(C(=N)N)cs2)c2csc(N)n2)C(=O)N1S(=O)(=O)O [Example 56, (2S,3S)-3-{[(2Z)-2-(2-Amino-1,3-thiazol-4-yl)-2-({2-[(4-carbamimidoylthiophen-2-yl)methoxy]ethoxy}imino)acetyl]amino}-2-methyl-4-oxoazetidine-1-sulfonic acid]	2 µg/mL (≈ 3.76 µM)	4 µg/mL (≈ 7.52 µM)	0.5 µg/mL (≈ 0.941 µM)	0.5 µg/mL (≈ 0.941 µM)	32 µg/mL (≈ 60.2 µM)	32 µg/mL (≈ 60.2 µM)		4 µg/mL (≈ 7.52 µM)	8 µg/mL (≈ 15 µM)	2 µg/mL (≈ 3.76 µM)	1 mg/L	4 mg/L	4 mg/L	0.5 µg/mL (≈ 0.941 µM)	1 µg/mL (≈ 1.88 µM)	2 µg/mL (≈ 3.76 µM)	4 µg/mL (≈ 7.52 µM)	32 µg/mL (≈ 60.2 µM)	32 µg/mL (≈ 60.2 µM)	
C[C@H]1[C@H](NC(=O)/C(=N\OCCOc2nnc(C(=N)N)s2)c2csc(N)n2)C(=O)N1S(=O)(=O)O [Example 65, (2S,3S)-3-{[(2Z)-2-(2-Amino-1,3-thiazol-4-yl)-2-({2-[(5-carbamimidoyl-1,3,4-thiadiazol-2-yl)oxy]ethoxy}imino)acetyl]amino}-2-methyl-4-oxoazetidine-1-sulfonic acid]	0.5 µg/mL (≈ 0.962 µM)	0.5 µg/mL (≈ 0.962 µM)	0.25 µg/mL (≈ 0.481 µM)	0.125 µg/mL (≈ 0.241 µM)	16 µg/mL (≈ 30.8 µM)	32 µg/mL (≈ 61.6 µM)		8 µg/mL (≈ 15.4 µM)	8 µg/mL (≈ 15.4 µM)	1 µg/mL (≈ 1.92 µM)	0.5 mg/L	1 mg/L	2 mg/L	0.25 µg/mL (≈ 0.481 µM)	0.25 µg/mL (≈ 0.481 µM)	0.5 µg/mL (≈ 0.962 µM)	1 µg/mL (≈ 1.92 µM)	16 µg/mL (≈ 30.8 µM)	32 µg/mL (≈ 61.6 µM)	
